Measurements as given in publication PMC7509852 (Biochemistry, 2020).

Experiments:
Cj1427 [1] = target: T1, Cj1427 (Campylobacter jejuni, UniProt Q0P8I7); test: UV-vis spectrum of bound cofactor; format: biochemical; details: NAD+-bound enzyme; 2.0 mM substrate; 50 mM HEPES/KCl pH 7.4, 30 °C
Cj1427 [2] = target: T1, Cj1427; test: UV-vis loss of […] nm band; format: biochemical; details: NADH-bound enzyme; 2.0 mM substrate; 50 mM HEPES/KCl pH 7.4, 30 °C

T1 sequence (Q0P8I7 whole entry): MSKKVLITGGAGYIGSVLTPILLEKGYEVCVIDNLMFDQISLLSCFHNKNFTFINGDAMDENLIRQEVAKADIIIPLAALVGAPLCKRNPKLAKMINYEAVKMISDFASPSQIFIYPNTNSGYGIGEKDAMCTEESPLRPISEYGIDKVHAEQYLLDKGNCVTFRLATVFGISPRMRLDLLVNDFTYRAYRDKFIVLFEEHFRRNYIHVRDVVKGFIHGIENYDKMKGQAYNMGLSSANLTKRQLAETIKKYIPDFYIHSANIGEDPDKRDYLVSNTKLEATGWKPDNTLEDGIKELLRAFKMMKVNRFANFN

Compound	UV-vis spectrum of bound cofactor (Cj1427 [1])	UV-vis loss of 350 nm band; ion exchange chromatography (Cj1427 [2])
O=C(O)CC[C@H](O)C(=O)O [L-2-hydroxyglutarate]	Cj1427 with bound NAD^+ catalyzes the oxidation of L-2-hydroxyglutarate to α-ketoglutarate and NADH	
O=C(O)CCC(=O)C(=O)O [α-ketoglutarate]		initially bound NADH was converted to NAD^+ in the presence of α-ketoglutarate
